The source of these data is US20210352889A1, “MACROCYCLIC TETRAPYRROLE COMPOUNDS, COMPOSITIONS AND METHODS FOR INCREASING ABIOTIC STRESS RESISTANCE IN PLANTS” (SUNCOR ENERGY INC., priority 2018, published 2021).

In assay [1] the test system is Tomato cultivar “Tiny Tim”. The experiment in a line: Tomato plant tolerance to heat stress (Example 19). As to conditions: for Above ground plant biomass. Dry weight Total shoots / Roots dry weight / Above ground plant biomass, Fresh weight, Total shoots: heat stress 38° C., two foliar applications; for Above ground plant biomass. Dry weight Total shoots: harvest 27 days after first treatment, per plant; for Roots dry weight / Above ground plant biomass, Fresh weight, Total shoots: tomato; for Above ground plant biomass, Fresh weight, Total shoots: 27 days after first treatment; for Roots dry weight, % increase / Total shoots dry weight % increase / Total shoots fresh weight, % increase: vs Heat stress Control. In kind it is in vivo. The procedure: In this example, the effects of chlorin compounds and formulations were tested on Tomato cultivar “Tiny Tim” (Stokes seeds, Ontario, Canada). Several experiments were conducted in the greenhouse and Growth Chamber. The tests were designed to determine the activity of compounds on tomato plants tolerance to heat stress. In the experiments, Tomato transplants were grown in 6″ plastic pots filled with professional soil mix to 5-6 leaves stage in the greenhouse at 22° C.-25° C. and 8 h dark/16 h light photoperiod respectively. […] The Tomato plants were treated with two foliar applications of different formulations providing an even coverage (until run-off) using hand hold Spray bottle (Continental E-Z sprayer). Plants were treated with compounds two times with 7 days interval. Twenty four hours after the first foliar spray plants were placed into a Growth chamber and exposed to temperature stress (heat stress) for 10 days. […] After second foliar spray plants were placed for a second time into the Growth chamber and exposed to temperature stress (heat stress) for another 10 days. The Tomato plants were regularly watered to avoid water deficit. The Growth chamber was set at 16 h light/8 h dark photoperiod, illumination at 300 μmol·m^−2 s^−1 during the light photoperiod and 70% relative humidity. Temperature regime in the Growth chamber was set at 25° C. during the dark. […] Plants were moved from the Growth Chamber to the greenhouse and maintained in the greenhouse for four days prior to harvest. Twenty-seven days after the first treatment, plants were harvested, and biomass were recorded. Untreated plants—Heat stress Control was used as a reference for each measurement respectively. The experiments were set out in a completely randomized design with 6 replications for each treatment.

Assay [2] has as its system Arabidopsis thaliana. The experiment in a line: Plant senescence triggered by salt stress, visual rating (Example 2). In kind it is in vivo. Set-up: key to Ratings at 14 days: 9: Normal growth, no leaf symptoms; 7: Nearly normal growth with some leaves and tips yellow and rolled; 4: Growth severely inhibited, significant yellowing of the leaves with most leaves rolled; 2: Complete growth arrest with most of the leaves dried and some plants dead. Particulars: for % improvement: % senescence improvement relative to untreated control, 14 days; for Ratings at 14 days: visual leaf senescence score, salt stress 100, 200, 300 mM NaCl, percentages wt % of total composition. The protocol: In this example, the effect of metalized chlorin compounds and various additives on Arabidopsis thaliana senescence triggered by salt stress was measured by a visual rating scale reflecting progressive leaf senescence symptoms. […] It was also shown that the addition of oil, in particular poly-alpha-olefin (PAO), chelating agents or combinations thereof, further increased the protection. After prolonged exposure to salt stress, Na^+ accumulation in the shoot results in cytotoxic effects, whereby the most visible symptom is yellowing, followed by drying of leaves, due to leaf senescence and death. Leaf senescence may be evaluated by visual scoring reflecting progressive leaf senescence symptoms. [table] […] All percentage values in the Table are in wt % of total composition.

The subject of assay [3] is white clover (Trifolium repens) seedlings. Kind of assay: Primary root length of white clover seedlings under salt stress (Example 3). In kind it is in vivo. Particulars: porphyrin 0.01% v/v, 7 days after germination, mean ± standard error. The procedure:
In this example, the effect of porphyrin compounds on the sensitivity to salt stress of seedlings was evaluated. […] For exposure to salt, the water was adjusted to contain 100 mM NaCl. […] Salt stress tolerance was measured by determining the reduction of primary root length by analysis of pictures with the Image J™ software. Root lengths (mm) were measured 7 days after the germination. The following Table 3 summarizes the results.

The test system of assay [4] is Arabidopsis thaliana seedlings. The experiment in a line: Primary root length of Arabidopsis seedlings under salt stress (Example 1). In kind it is in vivo. As to conditions: for Root length (mm): 10 μM CuChln in media, 10 days after germination, mean ± standard error. The procedure:
Experiments were conducted to evaluate the effect of metallized chlorin compounds on salt stress treated seedlings, by measuring of primary root length. Copper chlorophyllin (CuChIn) was supplemented to the media onto which Arabidopsis thaliana seeds germinated. […] For exposure to salt, media was adjusted to contain 100 mM NaCl. For exposure to CuChIn, CuChIn was prepared as a 1 mM stock in water and was added to the media at 10 μM CuChIn final concentration. […] Arabidopsis seedlings were grown vertically at a temperature of 24±1° C., under LED lights (PAR 24 μmol m^−2/s^−1) and 16 hours:8 hours, light:dark photoperiod. Salt stress tolerance was measured by determining the reduction of primary root lengths.

A further assay relates to Arabidopsis seedlings. The experiment in a line: Pigment content under photooxidative conditions (Example 6). It counts as in vivo, Arabidopsis thaliana. The protocol: In this example, the effect of chlorin compounds on the pigment content of seedlings grown under photooxidative conditions was evaluated. In particular, the effect of CuChIn on the pigment content of Arabidopsis seedlings grown under photooxidative conditions was evaluated. To do so, the pigments were extracted and quantified. It was shown that CuChIn supplemented plants retained more pigments under this type of stress. […] In this experiment, to determine the effect of CuChIn on the pigment content, seedlings were grown as in Example 1, except that the plants were transferred under LED lights (PAR 142 μmol m^-2 s^-1) one week after germination. 14 days old seedlings were then harvested and weighted. The tissue was ground in liquid nitrogen. […] The pigment concentrations were determined spectrophotometrically and calculated using the following formulas known to those skilled in the art (i.e. Sumanta et al., 2014):Ch-a=16.72A665.2-9.16A652. (for chlorophyll a); Ch-b=34.09[…]=(1000A470-1.63Ca-104.96Cb)/221 (for carotenoids) and […]-(1⁄4×[…]) (for anthocyanins) (A=absorbance). The data is expressed as means±standard error.

In assay [5] the test system is tomato plants cv. Tumbling Tom. Kind of assay: Tomato plants tolerance to drought stress (Example 9). It counts as in vivo. Particulars: Table 9C. The protocol: In this example, the effects of chlorin compounds and formulations were tested on tomato plants cv. Tumbling Tom. The experiments were carried out in a greenhouse. Tests were designed to determine the activity of compounds on tomato plants tolerance to drought stress. In the experiments, tomato plants cv. […] Foliar treatments were applied 3 times with 7 days interval. 5 replications per treatment were used.

Assay [6] relates to Arabidopsis thaliana. Kind of assay: Effect of different oil on Arabidopsis senescence under salt stress (Example 24). Particulars: in vivo. The procedure:
The experimental protocol is the same as that of Example 2. In this example, the effect of metalized chlorin compounds and various oils on Arabidopsis thaliana senescence triggered by salt stress was measured by a visual rating scale reflecting progressive leaf senescence symptoms. […] It was also shown that the addition of oil further increased the protection. After prolonged exposure to salt stress, Na^+ accumulation in the shoot results in cytotoxic effects, whereby the most visible symptom is yellowing, followed by drying of leaves, due to leaf senescence and death. Leaf senescence may be evaluated by visual scoring reflecting progressive leaf senescence symptoms.

The mark [7] stands for this setting: 20 μM CuChln, photooxidative conditions, 14 days old seedlings, mean ± standard error.
Setting [8] is: foliar spray, vs drought control.

`O=C([O-])CN(CCN(CC(=O)[O-])CC(=O)[O-])CC(=O)[O-].[Ca+2].[Ca+2]` [0.05% Ca2EDTA, reference compound]: in assay [1], the “Above ground plant biomass. Dry weight Total shoots” value was 4.72 g; the Roots dry weight came out at 1.07 g/plant−^1; the “Above ground plant biomass, Fresh weight, Total shoots” value came to 34.62 g/plant^−1; the “Roots dry weight, % increase” value amounted to 15%. Also, in assay [1], the “Total shoots dry weight % increase” value came out at 6% and the “Total shoots fresh weight, % increase” value amounted to 3%.
Turning to `O=C([O-])CC(NC(CC(=O)[O-])C(=O)[O-])C(=O)[O-].[Na+].[Na+].[Na+].[Na+]` (stereo not shown) [0.25% Baypure CX100 ™, tetrasodium iminodisuccinate], in the assay with Arabidopsis thaliana [2], the “% improvement” value was found to be 14.4% and the “Ratings at 14 days” value is reported as 4.
On the same counts, the results for `O=C(O)CC(NCCNC(CC(=O)O)C(=O)O)C(=O)O` (stereo not shown) [5 mM EDDS, ethylenediamine-N,N′-disuccinic acid, reference compound] are 14.4% and 4.
Consider `C=CC1=C(C)c2cc3[nH]c(cc4nc(cc5[nH]c(cc1n2)c(C)c5CCC(=O)O)C(CCC(=O)O)=C4C)c(C)c3C=C` [PP9, protoporphyrin-IX], for which the “Root length (mm)” value in assay [3] (0 mM NaCl) came out at 1.04 ± 0.05 mm; in assay [3] (100 mM NaCl), 0.7 ± 0.08 mm.
The matching figures for `C=CC1=C(C)c2cc3[n-]c(cc4[n-]c(cc5nc(cc1n2)C(C)=C5C=C)c(C)c4CCC(=O)O)c(CCC(=O)O)c3C.[Zn+2]` [ZnPP9, zinc protoporphyrin-IX]: 1.01 ± 0.08 mm and 0.8 ± 0.08 mm.
For the molecule copper chlorophyllin [CuChln], the “Root length (mm)” value in assay [4] (0 mM NaCl) was determined as 5.05 ± 0.09 mm. Besides, the “influence on root length in the control experiment” value in assay [4] (10 μM CuChIn, no salt) is on record as “did not influence the root length”. Also, the “Root length (mm)” value in assay [4] (100 mM NaCl) worked out at 3.16 ± 0.14 mm. For the same molecule, in assay [4] (CuChIn supplemented media), the “salt tolerance vs untreated plants” value is “more salt tolerant than untreated plants”. For the same molecule, in the assay on Arabidopsis thaliana [2], the “% improvement” value amounted to 28.7% and the “Ratings at 14 days” value came out at 4.5. In addition, the “protection against senescence triggered by salt stress” value with Arabidopsis thaliana [2] (in vivo) is listed as “provides protection against plants senescence triggered by salt stress”. For the same molecule, in the assay with Arabidopsis seedlings (setting [7]), the “Anthocyanins” value was 0.08 ± 0.05 µg/mL, the “Ch-a” value was 6.62 ± 0.8 µg/mL, the “Ch-b” value is 2.28 ± 0.14 µg/mL and the “Cx + c (carotenoids)” value was found to be 1.56 ± 0.25 µg/mL. For the same molecule, in the assay with Arabidopsis seedlings (in vivo), the “pigments retained under photooxidative conditions” value is “retain more pigments than untreated plants”. Further, in assay [5] (setting [8]), the “Shoots Dry weight % increase” value turned out to be 4% and the “Shoots Fr. weight % increase” value is on record as 29.6%. Besides, the “Plant vigor Score 1-5” value in assay [5] (prolonged drought, foliar spray 3 times) is 4.6. For the same molecule, in assay [5] (prolonged drought, foliar spray 3 times with 7 days interval, Rate, %: CuChln 0.1, PAO488 + CuChln 0.5 + 0.1), the “Shoots Fr. weight” value came out at 8.7 g. Further, in assay [5] (prolonged drought, foliar spray 3 times, Rate, %: CuChln 0.1, PAO488 + CuChln 0.5 + 0.1), the “Shoots Dry weight” value was determined as 0.84 g. In assay [1], the “Above ground plant biomass. Dry weight Total shoots” value turned out to be 4.92 g; the Roots dry weight is 1.17 g/plant−^1; the “Above ground plant biomass, Fresh weight, Total shoots” value was found to be 37.17 g/plant^−1; the “Roots dry weight, % increase” value is listed as 26%. Further, in assay [1], the “Total shoots dry weight % increase” value worked out at 10% and the “Total shoots fresh weight, % increase” value amounted to 11%. For the same molecule, the “protection against senescence triggered by salt stress” value with Arabidopsis thaliana [6] was “provided protection against senescence triggered by salt stress”.
Consider “ethylenediaminetetraacetic acid-Ca [reference compound]”, for which, in the assay on Arabidopsis thaliana [2], the “% improvement” value is 14.4% and the “Ratings at 14 days” value is on record as 4.
